Test results reported in paper PMC10272112 (Nature Communications, 2023).
Values joined by “and” are separate entries in the source; they are usually repeats but may differ in a detail not shown here. Identical values can stand only once.

Experiments:
TwinStrep-GST-HDAC10 = biological target: T1, TwinStrep-GST-HDAC10 (Homo sapiens, UniProt Q969S8); experiment: HDAC10 TR-FRET assay; format: binding; settings: sheet S2e
T1 sequence (Q969S8 1-669): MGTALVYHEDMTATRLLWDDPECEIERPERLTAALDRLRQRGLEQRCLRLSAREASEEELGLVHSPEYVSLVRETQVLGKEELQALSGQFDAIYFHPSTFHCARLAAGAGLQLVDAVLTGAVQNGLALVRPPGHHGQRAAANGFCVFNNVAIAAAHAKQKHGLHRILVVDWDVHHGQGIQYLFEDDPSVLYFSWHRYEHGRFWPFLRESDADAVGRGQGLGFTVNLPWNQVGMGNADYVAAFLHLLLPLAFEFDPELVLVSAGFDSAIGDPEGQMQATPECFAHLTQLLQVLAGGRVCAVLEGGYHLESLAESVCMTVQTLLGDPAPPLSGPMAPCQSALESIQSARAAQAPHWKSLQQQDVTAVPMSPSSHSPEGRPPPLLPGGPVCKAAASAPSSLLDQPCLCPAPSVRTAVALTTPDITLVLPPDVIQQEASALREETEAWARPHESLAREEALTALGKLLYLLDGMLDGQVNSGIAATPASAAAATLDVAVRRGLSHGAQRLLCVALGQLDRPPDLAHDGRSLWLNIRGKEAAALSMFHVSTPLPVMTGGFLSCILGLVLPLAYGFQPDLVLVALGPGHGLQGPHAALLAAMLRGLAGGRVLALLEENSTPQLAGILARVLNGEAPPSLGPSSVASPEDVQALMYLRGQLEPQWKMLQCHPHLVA
Method: (§1) To validate the inhibition of HDACs by LA and LM and elaborate on the structure-activity relationship (SAR) of enantiomers as well as oxidized versus reduced forms of the molecules, we performed enzyme activity assays for recombinant HDAC1,2,3,6,8 as well as FRET-based binding assay for recombinant HDAC10.
Inhibitors with a D300e Digital Dispenser (Tecan). After drug dosing to the premixed assay reagents in buffer, plates were shaken (800 rpm orbital shaker, 30 s), centrifuged (300g, 1 min), and incubated at RT in the dark for 90 min. TR-FRET was measured with a CLARIOstar (BMG Labtech) plate reader, equipped with TR-FRET filters.

HDAC1 = HDAC1 (Homo sapiens, UniProt Q13547); experiment: HDAC-Glo assay; format: biochemical; design: purchased BPS Bioscience 50051; settings: 0.5 M TCEP, listed as SAHA
Method: as §1
The experiments were performed according to ref. [48]. […] Drug dosing was performed with a D300e Digital Dispenser (Tecan). HDACs (7 ng/mL for HDAC1, 25 ng/mL for HDAC2, 200 ng/mL for HDAC3/Ncor2 complex, 100 ng/mL for HDAC6, 200 ng/mL for HDAC8) and inhibitors were incubated together at room temperature (RT) for 30 min. After the addition of the HDAC-Glo™ I/II reagent, plates were shaken (800 rpm orbital shaker, 30 s), centrifuged (300 g, 1 min), and incubated at RT for 30 min. Luminescence was detected with a CLARIOstar (BMG Labtech) plate reader.

A549 cells = experiment: Arsenite-induced stress granule formation (G3BP1 immunofluorescence); format: cell-based; settings: for arsenite-induced stress granule quantification (G3BP1), Mean / arsenite-induced stress granule quantification (G3BP1), Median / arsenite-induced stress granule quantification (G3BP1), individual values: sheet 4b; for arsenite-induced stress granule quantification (G3BP1), individual values: single data points
Method: The acetylation status of proteins can affect their macromolecular associations and the tendency of proteins to phase-separate into liquid condensates such as stress granules. […] After pre-incubation of cells with the compound, stress granule formation was induced using 30 min of arsenite treatment (1 mM). After treatment, cells were fixed for immunofluorescence detection of stress granules via the common stress granule marker protein G3BP1[21].
0.03 × 10^6 A549 cells were seeded at 4-chamber slides (Thermo, Nunc) and cultured at 37 °C overnight. Cells were treated with HDAC inhibitor SAHA and Lipoic acid or LM for 6 h, followed by 1 mM Arsenite for 30 min. Cells were fixed by 4% PFA and permeabilized by 0.5% Triton X-100/PBS. 10% Goat serum in PBS was used for blocking. After manually selecting an area with cell confluency of 50–80%, 16 pictures were taken randomly around the central point (ZEISS software in-built function). Stress granule marker G3BP1 (Aviva Systems Biology, ARP37713_T100) was visualized and quantified by ImageJ. Statistical analysis was performed with GraphPad Prism.

Sequence of HDAC1 (Q13547 whole entry): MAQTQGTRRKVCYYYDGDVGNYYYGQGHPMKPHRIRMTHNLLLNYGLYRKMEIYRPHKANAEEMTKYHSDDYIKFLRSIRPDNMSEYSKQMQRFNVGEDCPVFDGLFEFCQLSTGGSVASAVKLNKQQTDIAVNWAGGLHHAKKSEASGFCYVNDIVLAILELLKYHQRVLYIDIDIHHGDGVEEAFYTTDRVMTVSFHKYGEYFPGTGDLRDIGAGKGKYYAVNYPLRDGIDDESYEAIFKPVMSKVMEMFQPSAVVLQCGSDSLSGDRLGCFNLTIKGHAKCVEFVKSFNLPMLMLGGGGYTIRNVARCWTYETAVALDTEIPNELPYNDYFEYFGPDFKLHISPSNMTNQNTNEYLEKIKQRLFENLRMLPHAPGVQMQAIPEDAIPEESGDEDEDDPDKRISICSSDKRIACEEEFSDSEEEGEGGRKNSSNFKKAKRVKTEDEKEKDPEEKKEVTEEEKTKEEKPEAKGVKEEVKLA

O=C(O)CCCCC1CCSS1 (centres unmarked) [R/S Lipoic Acid]
HDAC10 TR-FRET relative signal (TwinStrep-GST-HDAC10; log conc -4.58031): 16.6621 and 17.5526 and 13.058
HDAC10 TR-FRET relative signal (TwinStrep-GST-HDAC10; log conc -5.16059): 24.6813 and 29.9295 and 28.3509
HDAC10 TR-FRET relative signal (TwinStrep-GST-HDAC10; log conc -5.74088): 52.1664 and 54.0588 and 51.0514
HDAC10 TR-FRET relative signal (TwinStrep-GST-HDAC10; log conc -6.32148): 88.5435 and 84.6455 and 96.7603
HDAC10 TR-FRET relative signal (TwinStrep-GST-HDAC10; log conc -6.92082): 91.5597 and 91.2649 and 101.82
HDAC10 TR-FRET relative signal (TwinStrep-GST-HDAC10; log conc -7.57349): 99.4261 and 99.6664 and 105.18
HDAC10 TR-FRET relative signal (TwinStrep-GST-HDAC10; log conc -8.06198): 106.58 and 110.725 and 95.693

NC(=O)CCCCC1CCSS1 (centres unmarked) [R/S Lipoic Amide]
HDAC10 TR-FRET relative signal (TwinStrep-GST-HDAC10; log conc -4): 8.95 and 4.904 and 5.819
HDAC10 TR-FRET relative signal (TwinStrep-GST-HDAC10; log conc -6.32148): 8.47 and 4.461 and 8.704
HDAC10 TR-FRET relative signal (TwinStrep-GST-HDAC10; log conc -7.57349): 45.0477 and 41.2172 and 50.7784
HDAC10 TR-FRET relative signal (TwinStrep-GST-HDAC10; log conc -8.06198): 82.499 and 87.6271 and 84.2057

O=C(CCCCCCC(=O)Nc1ccccc1)NO [Vorinostat]
raw luminescence signal, HDAC1 inhibition (HDAC1; log10 M -4.30103, 3 technical replicates): 1951 and 1963 and 1822
raw luminescence signal, HDAC1 inhibition (HDAC1; log10 M -5.12407, 3 technical replicates): 3958 and 4231 and 3895
raw luminescence signal, HDAC1 inhibition (HDAC1; log10 M -5.94692, 3 technical replicates): 19908 and 20969 and 19762
raw luminescence signal, HDAC1 inhibition (HDAC1; log10 M -6.76955, 3 technical replicates): 88503 and 91916 and 93868
raw luminescence signal, HDAC1 inhibition (HDAC1; log10 M -7.59346, 3 technical replicates): 248915 and 245579 and 256063
raw luminescence signal, HDAC1 inhibition (HDAC1; log10 M -8.41567, 3 technical replicates): 337631 and 344047 and 344507
raw luminescence signal, HDAC1 inhibition (HDAC1; log10 M -9.27327, 3 technical replicates): 375556 and 372678 and 377396
raw luminescence signal, HDAC1 inhibition (HDAC1; log10 M -10.062, 3 technical replicates): 346292 and 360694 and 357566
arsenite-induced stress granule quantification (G3BP1), Mean (A549 cells; SAHA 5 uM): 45.6514
arsenite-induced stress granule quantification (G3BP1), Median (A549 cells; SAHA 5 uM): 49.1176
arsenite-induced stress granule quantification (G3BP1), individual values (A549 cells; SAHA 5 uM): 49.2857 and 50.3 and 41.875 and 50.4286 and 49.1176 and 51.2222 and 60.7 and 38.0833 and 56.9 and 30 and 49.3333 and 45.8824 and 50.6667 and 31.4 and 46 and 38.6364 and 52.8182 and 41.7273 and 33
arsenite-induced stress granule quantification (G3BP1), Mean (A549 cells; SAHA 10 uM): 35.2798
arsenite-induced stress granule quantification (G3BP1), Median (A549 cells; SAHA 10 uM): 36
arsenite-induced stress granule quantification (G3BP1), individual values (A549 cells; SAHA 10 uM): 44.5 and 23.5 and 22.5 and 18.5 and 15.6364 and 31 and 37.5882 and 55.1667 and 42.2 and 33.2 and 29.6923 and 41.5 and 52.75 and 25.3333 and 40.5 and 51.1667 and 36 and 30.8333 and 38.75
effect on stress granule numbers per cell (A549 cells; pre-incubation 6 h, then 1 mM arsenite 30 min): dose-dependent reduction of stress granule numbers per cell
